Data reported in ChEMBL document CHEMBL5512665, “A CARM1 Inhibitor Potently Suppresses Breast Cancer Both In Vitro and In Vivo” (J Med Chem, 2024).
Active and inactive are the calls of the source. The calls are words filed in the database; no cut-off is given here.

Assays:
[1] = Toxicity in BALB/C mouse xenografted with human MCF7 cells assessed as change in heart morphology at 50 mg/kg,ip administrated every other day for 29 days; format: organism-based; conditions: in vivo, 696 h, time 29 day
[2] = test system: MCF7; assay: Antitumor activity against human MCF7 cells xenografted in BALB/C mouse assessed as downregulation of TFF1 gene expression at 50 mg/kg,ip administrated every other day for 29 days by RT-qPCR analysis; format: functional, organism-based; conditions: time 29.0 day
[3] = test system: MDA-MB-231; assay: Antitumor activity against human MDA-MB-231 cells xenografted in BALB/C mouse assessed as reduction of tumor weight at 25 mg/kg,ip administrated daily for 11 days; format: functional, organism-based; conditions: time 11.0 day
[4] = test system: 4T1; assay: Antitumor activity against mouse 4T1 cells implanted in BALB/C mouse assessed as inhibition of tumor size at 50 mg/kg,ip administrated daily for 14 days; format: functional, organism-based; conditions: time 14.0 day
[5] = test system: MCF7; assay: Synergistic antiproliferative activity against human MCF7 cells assessed as inhibition of colony formation at 2.5 uM incubated for 10 days in presence of fulvestrant by crystal violet staining based analysis; format: functional, cell-based; conditions: time 10.0 day
[6] = test system: MCF7; assay: Potentiation of etoposide induced antiproliferative activity against human MCF7 cells assessed as upregulation of IFNalpha gene expression at 2.5 uM in presence of etoposide by RT-qPCR analysis; format: functional, cell-based

Cc1ccc(-c2nc(N3CCN(CCN(C)C)CC3)ncc2-c2ccoc2)cc1.Cl.Cl
Activity [1]: Non-Toxic
Activity [2]: Active
Activity [3]: Active
Activity [4]: Active
Activity [5]: Active
Activity [6]: Active
